Source: PubChem BioAssay AID248 (DTP/NCI, 2004)
Toxic doses and inconclusive results are not listed. Cut-off read from the data, not from the text of the source: active = T/C of 150% or more; inactive = T/C below 125%.

Tested on: L1210 leukemia ip in BDF1 mice, survival T/C
Assay: NCI In Vivo Anticancer Drug Screen. Data for tumor model L1210 Leukemia (intraperitoneal) in B6D2F1 (BDF1) mice
Conditions: endpoint: mean survival time, higher = longer survival
Summary of the method: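 Value reflects the ratio of survival in compound-treated mice to survival in vehicle-treated controls, with both groups carrying the same transplanted tumor.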

[1] = dose: 100.0 mg/kg/injection, schedule: Q01DX001 (ip), vehicle: carboxymethylcellulose (CMC)
[2] = dose: 200.0 mg/kg/injection, schedule: Q01DX001 (ip), vehicle: carboxymethylcellulose (CMC)
[3] = dose: 400.0 mg/kg/injection, schedule: Q01DX001 (ip), vehicle: carboxymethylcellulose (CMC)
[4] = dose: 100.0 mg/kg/injection, schedule: Q04DX003 (ip), vehicle: Klucel (hydroxypropylcellulose) (HPC)
[5] = dose: 200.0 mg/kg/injection, schedule: Q04DX003 (ip), vehicle: Klucel (hydroxypropylcellulose) (HPC)
[6] = dose: 400.0 mg/kg/injection, schedule: Q04DX003 (ip), vehicle: Klucel (hydroxypropylcellulose) (HPC)

Measured: T/C

CCOC(=O)N1CCN(C(=O)OCC)CC1
inactive: dose: 50.0 mg/kg/injection, schedule: Q01DX009 (ip), vehicle: saline with Tween-80 95 % of control | dose: 100.0 mg/kg/injection, schedule: Q01DX009 (ip), vehicle: saline with Tween-80 95 % of control | dose: 200.0 mg/kg/injection, schedule: Q01DX009 (ip), vehicle: saline with Tween-80 95 % of control

Cc1ccc2c(c1)OC(=O)CC2C (stereo unspecified)
inactive: [1] 100 % of control | [2] 96 % of control | [3] 96 % of control

[NH-]CC([NH-])=O.[NH-]CC([NH-])=O.[Ni]
inactive: dose: 3.12 mg/kg/injection, schedule: Q01DX009 (ip), vehicle: water 96 % of control | dose: 6.25 mg/kg/injection, schedule: Q01DX009 (ip), vehicle: water 100 % of control | dose: 12.5 mg/kg/injection, schedule: Q01DX009 (ip), vehicle: water 103 % of control

CS(=O)(=O)CC(=O)c1ccc(O)cc1O
inactive: dose: 100.0 mg/kg/injection, schedule: Q01DX001 (ip), vehicle: saline with Tween-80 106 % of control | dose: 200.0 mg/kg/injection, schedule: Q01DX001 (ip), vehicle: saline with Tween-80 103 % of control | dose: 400.0 mg/kg/injection, schedule: Q01DX001 (ip), vehicle: saline with Tween-80 95 % of control

COC(OC)c1cc(S)[nH]c(=O)c1F
inactive: [4] 98 % of control | [5] 97 % of control | [6] 103 % of control

COC(C(=O)O)c1ccc(Br)cc1 (stereo unspecified)
inactive: dose: 75.0 mg/kg/injection, schedule: Q01DX001 (ip), vehicle: acetone 95 % of control | dose: 150.0 mg/kg/injection, schedule: Q01DX001 (ip), vehicle: acetone 94 % of control

C=CN1CCCC1=O
inactive: dose: 100.0 mg/kg/injection, schedule: Q01DX001 (ip), vehicle: acetone 95 % of control | dose: 100.0 mg/kg/injection, schedule: Q01DX001 (ip), vehicle: saline 97 % of control | dose: 100.0 mg/kg/injection, schedule: Q04DX002 (ip), vehicle: saline 103 % of control | dose: 100.0 mg/kg/injection, schedule: Q04DX003 (ip), vehicle: saline with Tween-80 100 % of control | dose: 200.0 mg/kg/injection, schedule: Q01DX001 (ip), vehicle: acetone 95 % of control | dose: 200.0 mg/kg/injection, schedule: Q01DX001 (ip), vehicle: saline 92 % of control | dose: 200.0 mg/kg/injection, schedule: Q04DX002 (ip), vehicle: saline 103 % of control | dose: 200.0 mg/kg/injection, schedule: Q04DX003 (ip), vehicle: saline with Tween-80 92 % of control | dose: 400.0 mg/kg/injection, schedule: Q01DX001 (ip), vehicle: acetone 93 % of control | dose: 400.0 mg/kg/injection, schedule: Q04DX002 (ip), vehicle: saline 103 % of control | dose: 400.0 mg/kg/injection, schedule: Q04DX003 (ip), vehicle: saline with Tween-80 92 % of control | dose: 600.0 mg/kg/injection, schedule: Q01DX001 (ip), vehicle: saline 100 % of control | dose: 800.0 mg/kg/injection, schedule: Q01DX001 (ip), vehicle: saline 100 % of control | dose: 1000.0 mg/kg/injection, schedule: Q01DX001 (ip), vehicle: saline 106 % of control | dose: 1200.0 mg/kg/injection, schedule: Q01DX001 (ip), vehicle: saline 108 % of control | dose: 1.9 grams/kg/injection, schedule: Q01DX001 (iv), vehicle: saline 98 % of control | dose: 1.9 grams/kg/injection, schedule: Q01DX005 (iv), vehicle: saline 97 % of control | dose: 1.9 grams/kg/injection, schedule: Q04DX003 (iv), vehicle: saline 97 % of control | dose: 3.8 grams/kg/injection, schedule: Q01DX001 (ip), vehicle: saline 90 % of control | dose: 3.8 grams/kg/injection, schedule: Q01DX001 (iv), vehicle: saline 97 % of control | dose: 3.8 grams/kg/injection, schedule: Q01DX005 (ip), vehicle: saline 100 % of control | dose: 3.8 grams/kg/injection, schedule: Q01DX005 (iv), vehicle: saline 96 % of control | dose: 3.8 grams/kg/injection, schedule: Q01DX009 (ip), vehicle: saline 91 % of control | dose: 3.8 grams/kg/injection, schedule: Q03HX008 (ip), vehicle: saline 97 % of control | dose: 3.8 grams/kg/injection, schedule: Q03HX016 (ip), vehicle: saline 98 % of control | dose: 3.8 grams/kg/injection, schedule: Q03HX024 (ip), vehicle: saline 101 % of control | dose: 3.8 grams/kg/injection, schedule: Q04DX003 (ip), vehicle: saline 101 % of control | dose: 3.8 grams/kg/injection, schedule: Q04DX003 (iv), vehicle: saline 94 % of control | dose: 3.8 grams/kg/injection, schedule: Q08DX002 (ip), vehicle: saline 97 % of control | dose: 7.5 grams/kg/injection, schedule: Q01DX001 (ip), vehicle: saline 93 % of control | dose: 7.5 grams/kg/injection, schedule: Q01DX001 (iv), vehicle: saline 97 % of control | dose: 7.5 grams/kg/injection, schedule: Q01DX005 (ip), vehicle: saline 103 % of control | dose: 7.5 grams/kg/injection, schedule: Q01DX005 (iv), vehicle: saline 93 % of control | dose: 7.5 grams/kg/injection, schedule: Q01DX009 (ip), vehicle: saline 97 % of control | dose: 7.5 grams/kg/injection, schedule: Q03HX008 (ip), vehicle: saline 96 % of control | dose: 7.5 grams/kg/injection, schedule: Q03HX016 (ip), vehicle: saline 95 % of control | dose: 7.5 grams/kg/injection, schedule: Q03HX024 (ip), vehicle: saline 103 % of control | dose: 7.5 grams/kg/injection, schedule: Q04DX003 (ip), vehicle: saline 98 % of control | dose: 7.5 grams/kg/injection, schedule: Q04DX003 (iv), vehicle: saline 92 % of control | dose: 7.5 grams/kg/injection, schedule: Q08DX002 (ip), vehicle: saline 98 % of control | dose: 15.0 grams/kg/injection, schedule: Q01DX001 (ip), vehicle: saline 88 % of control | dose: 15.0 grams/kg/injection, schedule: Q01DX005 (ip), vehicle: saline 102 % of control | dose: 15.0 grams/kg/injection, schedule: Q01DX009 (ip), vehicle: saline 96 % of control | dose: 15.0 grams/kg/injection, schedule: Q04DX003 (ip), vehicle: saline 95 % of control | dose: 15.0 grams/kg/injection, schedule: Q08DX002 (ip), vehicle: saline 94 % of control

O=P(NC12CC3CC(CC(C3)C1)C2)(OCc1ccccc1)OCc1ccccc1
inactive: dose: 75.0 mg/kg/injection, schedule: Q01DX009 (ip), vehicle: Klucel (hydroxypropylcellulose) (HPC) 97 % of control | dose: 150.0 mg/kg/injection, schedule: Q01DX009 (ip), vehicle: Klucel (hydroxypropylcellulose) (HPC) 90 % of control | dose: 300.0 mg/kg/injection, schedule: Q01DX009 (ip), vehicle: Klucel (hydroxypropylcellulose) (HPC) 95 % of control

CCCNC(=O)c1cccc(-c2cccc(C(=O)NCCC)c2)c1
inactive: dose: 200.0 mg/kg/injection, schedule: Q01DX001 (ip), vehicle: other 93 % of control

Cc1cccc(NS(=O)(=O)c2ccc(Cl)cc2)c1C
inactive: dose: 100.0 mg/kg/injection, schedule: Q01DX009 (ip), vehicle: Klucel (hydroxypropylcellulose) (HPC) 109 % of control | [4] 96 % of control | dose: 200.0 mg/kg/injection, schedule: Q01DX009 (ip), vehicle: Klucel (hydroxypropylcellulose) (HPC) 105 % of control | [5] 94 % of control | dose: 400.0 mg/kg/injection, schedule: Q01DX009 (ip), vehicle: Klucel (hydroxypropylcellulose) (HPC) 94 % of control | [6] 103 % of control

O=C1C(=Cc2ccc([N+](=O)[O-])cc2)C(=O)c2ccccc21
inactive: dose: 12.5 mg/kg/injection, schedule: Q01DX009 (ip), vehicle: Klucel (hydroxypropylcellulose) (HPC) 93 % of control | dose: 12.5 mg/kg/injection, schedule: Q04DX003 (ip), vehicle: Klucel (hydroxypropylcellulose) (HPC) 97 % of control | dose: 25.0 mg/kg/injection, schedule: Q01DX009 (ip), vehicle: Klucel (hydroxypropylcellulose) (HPC) 88 % of control | dose: 25.0 mg/kg/injection, schedule: Q04DX003 (ip), vehicle: Klucel (hydroxypropylcellulose) (HPC) 90 % of control | dose: 50.0 mg/kg/injection, schedule: Q01DX009 (ip), vehicle: Klucel (hydroxypropylcellulose) (HPC) 98 % of control | dose: 50.0 mg/kg/injection, schedule: Q04DX003 (ip), vehicle: Klucel (hydroxypropylcellulose) (HPC) 93 % of control

COc1ccccc1NP1(=O)OCC(C)([N+](=O)[O-])CO1 (stereo unspecified)
inactive: [1] 89 % of control | [2] 104 % of control | [3] 93 % of control
